Laboratory results as given in patent publication US10632115B2, “Use of a statin compound as local drug for treating obesity, diabetes, hypertension and hyperlipemia” (Peking University Third Hospital, priority 2015, dated 2020).

Assays:
diabetic rats = test: Fasting blood glucose assay in diabetic rats after single intraosseous statin injection; format: in vivo, rat; conditions: 1-14 weeks after single intraosseous injection (fluvastatin 8 mg, atorvastatin 4 mg, rosuvastatin 2 mg); tail blood, glucose meter
Experimental: 36 three-month-old male SD rats (250-300 g) rats were accommodated for one week, in accordance with standard procedures of diabetic rat model, intraperitoneal injection of streptozotocin (STZ, Sigma Company) 40 mg/kg, the next day administration of high fat diet (purchased from Institute of Zoology, recipe: 68.5% base stock, lard 20%, 10% sucrose, 1% cholesterol and 0.5% porcine bile salts).
Two months later, all the rats were abnormally elevated blood glucose (above 19.5 mmol/L), indicate a successful model (Zhouguang Xing animal models of human disease replication methodology Shanghai Science and Technology Literature Press, 2008: 167-168 SHI Xin animal models of human disease People's Health Press, 2008: 301-305). […] Bone wax pinhole puncture closure avoiding leakage and sutured wounds.
After the rats were fasted 6 h, take one drop of blood (about 50 ul) from the rat tail and placed in the blood sugar test paper (Roche), 2 seconds later, fasting blood glucose were determinated by Roche glucose meter (ACCU-CHEK Performa). […]

type 2 diabetes patients = conditions: oral atorvastatin 10 mg/d for 16 weeks added to conventional antidiabetic; vs control group; cited from earlier work
[1] = oral atorvastatin 10 mg/day, simvastatin 40 mg/day; cited from earlier work

Row | Structure (SMILES) | fasting blood glucose (diabetic rats) | blood glucose (type 2 diabetes patients) | effect on diabetes [1]
1 | CC(C)c1c(C(=O)Nc2ccccc2)c(-c2ccccc2)c(-c2ccc(F)cc2)n1CC[C@@H](O)C[C@@H](O)CC(=O)O [atorvastatin] | significantly reduced | much better than the control group | no effect
2 | CC(C)c1nc(N(C)S(C)(=O)=O)nc(-c2ccc(F)cc2)c1/C=C/[C@@H](O)C[C@@H](O)CC(=O)O [rosuvastatin] | significantly reduced | – | –
